From US20250367283A1, “MEVALONATE PATHWAY INHIBITOR AS HIGHLY-EFFICIENT VACCINE ADJUVANT” (Tsinghua University, priority 2015, published 2025)
Read-outs that look alike come from different tables or passages of the source.

Legend:
[1] = biological target: humanized farnesyl pyrophosphate synthase (HsFPPS) (Homo sapiens (Human), UniProt P14324); experiment: In vitro HsFPPS enzyme activity assay; format: biochemical
Protocol: The measurement method is briefly described as follows: the expression of HsFPPS with 6 consecutive His at the N-terminus was induced in vitro, collected, and purified by Ni column. An in vitro HsFPPS enzyme activity assay was performed in a 96-well plate with 200 μl of solution per well. The buffer of the system was 25 mM HEPES, 2.5 mM MgCl2, pH 7.4. Using DMAPP and IPP as reaction substrates, the change of the UV value at a wavelength of 360 nm was monitored in real time in a phosphate lyase system. The ORIGIN 8.0 software was used to plot and fit. The IC50 values for the inhibition of FPPS by the TH-Z80 series of compounds were shown in the following table, in micromoles per liter (μM).
(§1) HsFPPs with 6 consecutive His at the N-terminus was induced to express in vitro, collected, and purified by Ni column. In vitro HsFPPs enzymatic activity assay was performed in a 96-well plate at 200 μl of solution per well. The buffer of the system was 25 mM HEPES, 2.5 mM MgCl2, pH 7.4. Using DMAPP and IPP as reaction substrates, the changes of UV at 360 nm were monitored in real-time in phosphate lyase system. ORIGIN 8.0 software was used to plot and fit.

[2] = test system: PvGGPPS (geranylgeranyl pyrophosphate synthase from Plasmodium); experiment: In vitro PvGGPPS enzymatic activity assay; format: biochemical; details: GPP and IPP substrates
Protocol: as §1, with “PvGGPPs” for “HsFPPs”, “GPP” for “DMAPP”, “a” for “the changes of UV at”, “continuous spectrophotometric detection was performed” for “were monitored”, “a” for “real-time in”

[3] = test system: Plasmodium falciparum 3D7; experiment: Test of plasmodium activity (SYBR-GREEN1); format: cell-based; details: infected erythrocytes, 72 hours; read-out: Malaria (IC50/μM)
Protocol: Plasmodium falciparum 3D7 was cultured with […] medium mixed with 10% human O-type blood serum and 25 mM HEPES. The cultivation process was maintained in a carbon dioxide incubator under 5% carbon dioxide. In vitro drug testing experiments were performed on a 96-well plate. The test drug was dissolved in PBS and pre-diluted with complete medium. Infected erythrocytes were cultured in triplicate for 72 hours in 3-fold serial dilutions of drug. Then an equal amount of SYBR-GREEN1 was added to each well. The detection was then performed at 485 nm for excitation light and 538 nm for emitted light. […] ORIGIN 8.0 software was used to plot and fit.

[4] = test system: anti-OVA IgM and IgG antibodies; experiment: OVA evaluation system: adjuvant activity in antibody titer in mice; format: in vivo; details: for adjuvant effect among TH-Z80 series: intramuscular, OVA; for adjuvant effect among bisphosphonic acid compounds / adjuvant effect vs 8 commercially available bisphosphonic acid compounds: 100 ug
Protocol: OVA evaluation system was used to determine adjuvant activity in antibody titer.
Mice of C57B/6 strain were used. The mice in the experimental group were injected with the obtained mixture of each of the statins and OVA antigen through soles injection, with 20 μl for each mouse. The mice in the control group were injected with a 1:1 mixture of PBS or DMSO (10 μl) and 10 μl OVA antigen (PBS or DMSO is 10 μl, respectively, and the antigen is 10 μl) through soles injection, with 20 μl for each mouse. On Day 7 and Day 14 after immunization, blood was taken from the mice's orbits, with 100 μl was taken from each mouse. The obtained blood was left at 4° C. overnight, and centrifuged at 6000 rpm for 8 min. The supernatant serum was removed and the titers of anti-OVA IgM and IgG antibodies in the serum were determined.
Test of the OVA antibody titer: The OVA protein was diluted to a concentration of 2 μg/ml with a carbonate solution of pH 9.6, coated in a 96-well ELISA plate at 50 μl per well, and left at 4° C. overnight. The ELISA plate was washed five times with PBS containing 0.05% Tween 20, blocked with 1% BSA solution at 200 μl per well, and incubated at room temperature for 2 h. The ELISA plate was washed five times with PBST (Phosphate Buffered Saline with Tween), a 2-fold serial dilution of the mouse serum after immunized with OVA was added at 50 μl per well and incubated at room temperature for 2 h. After the ELISA plate was washed five times with PBST, HRP (horseradish peroxidase)-labeled goat-anti-mouse IgM or IgG antibody was added and incubated at room temperature for 45 min. The ELISA plate was washed five times with PBST, and a color developing solution of sodium citrate OPD (o-phenylenediamine) was added. After 10 min of color development in the dark, sulfuric acid was added to terminate the reaction. The reading was performed with ELIASA OD490. The maximum serum dilution factor, when the ratio of light absorptions of the experimental group to the control group was >2.0, was the titer of the anti-OVA antibody in the serum.
Each test compound was formulated at a concentration of 2 mg/ml and the concentration of OVA antigen was 2 mg/ml. Each compound was mixed with OVA at 1:1. Each C57B/6 mouse in the experimental group was injected with 100 μl of the mixture (containing 50 μl of the antigen and 50 μl of the compound) by intramuscular injection at the right thigh. On Day 7 and Day 14 after immunization, blood was taken from the mice's orbit, and 100 μl was taken for each mouse. The obtained blood was allowed to stand at 4° C. overnight, and centrifuged at 6000 rpm for 8 min. The supernatant serum was removed, and the titers of anti-OVA IgM and IgG antibodies in the serum were determined.
Method: each of the test compounds (the 10 bisphosphonates as described above) was mixed with the OVE antigen at 1:1, and the concentrations of bisphosphonic acid and OVA were both 10 mg/ml. Mice of C57B/6 strain were used. The mice in the experimental group were injected with the mixture of each of the test compounds and OVA antigen through soles injection, with 20 μl for each mouse, and wherein the amounts of OVA antigen and each of the test compounds were both 100 ug. The mice in the control group were injected with a 1:1 mixture of […] and 10 μl OVA antigen through sole injection. On Day 7 and Day 14 after immunization, blood was taken from the mice's orbits, and 100 μl was taken from each mouse.
The obtained blood was left at 4° C. overnight, and centrifuged at 6000 rpm for 8 min. The supernatant serum was removed, and the titers of anti-OVA IgM and IgG antibodies in the serum were determined.
Method: TH-Z144 and TH-Z145 were prepared at the concentration of 10 mg/ml, the concentration of OVA antigen was also 10 mg/ml, and the compound and the antigen were mixed at 1:1. Mice of C57B/6 strain were used.

[5] = Example 15 table, read-out: HsFPPS (IC50/μM)
[6] = TH-Z80 series, DMAPP and IPP substrates, pH 7.4, read-out: IC50 for inhibition of FPPS
[7] = bisphosphonic acids 100 ug with OVA, soles injection, Day 7 and Day 14

Chain of humanized farnesyl pyrophosphate synthase (HsFPPS) (P14324 whole entry, looked up): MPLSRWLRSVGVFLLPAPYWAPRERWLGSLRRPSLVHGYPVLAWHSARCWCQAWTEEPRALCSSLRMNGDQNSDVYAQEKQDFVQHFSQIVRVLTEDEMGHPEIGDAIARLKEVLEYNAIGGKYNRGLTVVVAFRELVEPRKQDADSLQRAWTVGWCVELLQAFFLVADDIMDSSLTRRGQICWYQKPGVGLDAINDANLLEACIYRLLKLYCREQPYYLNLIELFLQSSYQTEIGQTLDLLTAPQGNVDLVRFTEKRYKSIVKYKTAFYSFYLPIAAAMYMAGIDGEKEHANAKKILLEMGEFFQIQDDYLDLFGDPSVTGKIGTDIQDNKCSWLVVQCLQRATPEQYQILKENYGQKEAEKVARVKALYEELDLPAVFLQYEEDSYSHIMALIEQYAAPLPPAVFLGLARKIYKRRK

Compound	IC50 [1, 5]	IC50 [1, 6]	IC50 [2]	IC50 [3]	adjuvant effect among TH-Z80 series [4]	also measured
CCCCCCCOc1ccc2c(c1)ncn2CC(O)(P(=O)(O)O)P(=O)(O)O [TH-Z152]	0.14 µM	0.14 µM	0.95 µM	1.21 µM	most significant adjuvant effects	–
CCCCCCOc1ccc2c(c1)ncn2CC(O)(P(=O)(O)O)P(=O)(O)O [TH-Z80]	0.11 µM	0.11 µM	0.37 µM	1.76 µM	most significant adjuvant effects	adjuvant effect among bisphosphonic acid compounds ([4]; soles injection): most significant adjuvant effects; adjuvant effect vs 8 commercially available bisphosphonic acid compounds ([4]; soles injection): much higher than any of the 8 commercially available bisphosphonic acid compounds; IgM and IgG antibody titers vs PBS control [4, 7]: more than five times higher; antibody titers vs PBS control at different immunization sites ([4]; soles, subcutaneous, muscle, abdominal and nasal mucosa): significantly increased
CCC(C)(C)C(=O)O[C@H]1C[C@@H](C)C=C2C=C[C@H](C)[C@H](CC[C@@H]3C[C@@H](O)CC(=O)O3)[C@H]21 [simvastatin, reference compound]	–	–	–	–	–	adjuvant effect among statin drugs ([4]; statins with OVA, soles injection): most significant adjuvant effects; IgM and IgG antibody titers vs PBS or DMSO control ([4]; statins with OVA, soles injection, Day 7 and Day 14): significantly higher titers
CCCCCCCCCOc1ccc2c(c1)ncn2CC(O)(P(=O)(O)O)P(=O)(O)O [TH-Z153]	4.9 µM	4.9 µM	1.09 µM	1.28 µM	most significant adjuvant effects	–
(2-(3-(octyloxy)phenyl)ethane-1,1-diyl)bisphosphonic acid [TH-Z145]	–	–	–	–	–	IgM and IgG antibody titers vs PBS control ([4]; GGPPS inhibitors 100 μg with OVA, right sole, Day 7 and Day 14): significantly higher titers
CCCCCCCCOc1ccc2c(c1)ncn2CC(O)(P(=O)(O)O)P(=O)(O)O [TH-Z81]	0.48 µM	0.48 µM	2.07 µM	1.95 µM	most significant adjuvant effects	–
CCCCCCOc1ccnc(NC(P(=O)(O)O)P(=O)(O)O)c1 [TH-Z93, (((4-(hexyloxy)pyridin-2-yl)amino)methylene)bisphosphonic acid]	–	–	–	–	–	IC50 ([1]; o-aminopyridine bisphosphonic acid compounds, read-out: IC50 (inhibition of FPPS)): 0.1 µM; adjuvant effect among bisphosphonic acid compounds ([4]; soles injection): most significant adjuvant effects; adjuvant effect vs 8 commercially available bisphosphonic acid compounds ([4]; soles injection): much higher than any of the 8 commercially available bisphosphonic acid compounds; IgM and IgG antibody titers vs PBS control [4, 7]: more than five times higher
